# Measurements taken from PMC9266445, “Probing the Conformational States of Thimet Oligopeptidase in Solution” (International Journal of Molecular Sciences, 2022).
# Experiments:
# WT TOP = biological target: T1, WT TOP (Rattus norvegicus, UniProt P24155); test: Inhibition constant of JA-2, continuous assay with QFS, WT TOP; assay type: biochemical; conditions: substrate QFS, 37 °C, 50 mM Tris-HCl pH 7.4, 100 mM NaCl, 0.5 mM DTT
# T1 construct: made in house; host or cells: Escherichia coli BL21 (DE3), pET26b
# Procedure: (§1) WT TOP and mutant activities were monitored spectrofluorometrically in a Shimadzu RF-5301PC spectrofluorometer using the FRET peptide QFS (Mca-Pro-Leu-Gly-Pro-D-Lys (Dnp)-OH) as substrate, with excitation and emission wavelengths of 320 and 420 nm, respectively. TOP and its mutants were pre-activated by incubation with 0.5 mM DTT for 5 min at 37 °C. The concentration of the peptide solutions was determined by measuring the absorption of the 2,4-dinitrophenyl group at 365 nm (ε = 17,300 M^−1cm^−1). The kinetic parameters of peptide hydrolysis were determined at 37 °C in 50 mM Tris-HCl buffer, pH 7.4, containing 100 mM NaCl. […] The reaction was monitored continuously via the fluorescence of the released product. The rate of increase in fluorescence was converted into moles of substrate hydrolyzed per second based on the fluorescence curves of standard peptide solutions before and after total enzymatic hydrolysis. […] An empirical equation was used to correct for the inner-filter effect, and the kinetic parameters were calculated according to Wilkinson and by using Eadie–Hofstee plots. […]
# (§2) Inhibition constants were determined using the TOP inhibitor JA-2 (N-[1-(R,S)-carboxy-3-phenylpropyl]Ala-Aib-Tyr-p-aminobenzoate). The constants were determined in a continuous assay using the FRET peptide QFS as substrate. […]
# TOP^-TrpW390 = biological target: T2, TOP^-TrpW390 (Rattus norvegicus, UniProt P24155, W124F/W335F/W511F/W513F/W614F); test: Inhibition constant of JA-2, continuous assay with QFS, TOP^-TrpW390; assay type: biochemical; conditions: substrate QFS, 37 °C, 50 mM Tris-HCl pH 7.4, 100 mM NaCl, 0.5 mM DTT
# T2 construct: made in house; host or cells: Escherichia coli BL21 (DE3), pET26b
# Procedure: as §1, §2
# TOP^-TrpW390/F178pNF [1] = biological target: T3, TOP^-TrpW390/F178pNF (Rattus norvegicus, UniProt P24155, W124F/W335F/W511F/W513F/W614F); test: Inhibition constant of JA-2, continuous assay with QFS, TOP^-TrpW390/F178pNF; assay type: biochemical; conditions: substrate QFS, 37 °C, 50 mM Tris-HCl pH 7.4, 100 mM NaCl, 0.5 mM DTT
# T3 construct: made in house; host or cells: Escherichia coli BL21 (DE3), pET26b + pACYC184 (orthogonal tRNA/synthetase pair for pNF)
# Procedure: as §1, §2
# TOP^-TrpW390/L182pNF [2] = biological target: T4, TOP^-TrpW390/L182pNF (Rattus norvegicus, UniProt P24155, L182F/W124F/W335F/W511F/W513F/W614F); test: Inhibition constant of JA-2, continuous assay with QFS, TOP^-TrpW390/L182pNF; assay type: biochemical; conditions: substrate QFS, 37 °C, 50 mM Tris-HCl pH 7.4, 100 mM NaCl, 0.5 mM DTT
# T4 construct: made in house; host or cells: Escherichia coli BL21 (DE3), pET26b + pACYC184 (orthogonal tRNA/synthetase pair for pNF)
# Procedure: as §1, §2
# TOP^-TrpW390/L215pNF [3] = biological target: T5, TOP^-TrpW390/L215pNF (Rattus norvegicus, UniProt P24155, L215F/W124F/W335F/W511F/W513F/W614F); test: Inhibition constant of JA-2, continuous assay with QFS, TOP^-TrpW390/L215pNF; assay type: biochemical; conditions: substrate QFS, 37 °C, 50 mM Tris-HCl pH 7.4, 100 mM NaCl, 0.5 mM DTT
# T5 construct: made in house; host or cells: Escherichia coli BL21 (DE3), pET26b + pACYC184 (orthogonal tRNA/synthetase pair for pNF)
# Procedure: as §1, §2
# TOP^-TrpW390/Y224pNF [4] = biological target: T6, TOP^-TrpW390/Y224pNF (Rattus norvegicus, UniProt P24155, W124F/W335F/W511F/W513F/W614F/Y224F); test: Inhibition constant of JA-2, continuous assay with QFS, TOP^-TrpW390/Y224pNF; assay type: biochemical; conditions: substrate QFS, 37 °C, 50 mM Tris-HCl pH 7.4, 100 mM NaCl, 0.5 mM DTT
# T6 construct: made in house; host or cells: Escherichia coli BL21 (DE3), pET26b + pACYC184 (orthogonal tRNA/synthetase pair for pNF)
# Procedure: as §1, §2
# TOP^-TrpW390/F178pNF [5] = biological target: T3, TOP^-TrpW390/F178pNF; test: Protein fluorescence (Trp-pNF FRET) assay in presence of JA-2, TOP^-TrpW390/F178pNF
# TOP^-TrpW390/L182pNF [6] = biological target: T4, TOP^-TrpW390/L182pNF; test: Protein fluorescence (Trp-pNF FRET) assay in presence of JA-2, TOP^-TrpW390/L182pNF
# TOP^-TrpW390/L215pNF [7] = biological target: T5, TOP^-TrpW390/L215pNF; test: Protein fluorescence (Trp-pNF FRET) assay in presence of JA-2, TOP^-TrpW390/L215pNF
# TOP^-TrpW390/Y224pNF [8] = biological target: T6, TOP^-TrpW390/Y224pNF; test: Protein fluorescence (Trp-pNF FRET) assay in presence of JA-2, TOP^-TrpW390/Y224pNF
# [9] = 13.4 µM JA-2, 0.5 µM TOP protein, 37 °C, 50 mM Tris-HCl pH 7.4, 100 mM NaCl, 0.5 mM DTT
# [10] = 13.4 µM JA-2, calculated using Equation (1), R0 = 15.8 Å
# T4 sequence (P24155 whole entry W124F/L182F/W335F/W511F/W513F/W614F): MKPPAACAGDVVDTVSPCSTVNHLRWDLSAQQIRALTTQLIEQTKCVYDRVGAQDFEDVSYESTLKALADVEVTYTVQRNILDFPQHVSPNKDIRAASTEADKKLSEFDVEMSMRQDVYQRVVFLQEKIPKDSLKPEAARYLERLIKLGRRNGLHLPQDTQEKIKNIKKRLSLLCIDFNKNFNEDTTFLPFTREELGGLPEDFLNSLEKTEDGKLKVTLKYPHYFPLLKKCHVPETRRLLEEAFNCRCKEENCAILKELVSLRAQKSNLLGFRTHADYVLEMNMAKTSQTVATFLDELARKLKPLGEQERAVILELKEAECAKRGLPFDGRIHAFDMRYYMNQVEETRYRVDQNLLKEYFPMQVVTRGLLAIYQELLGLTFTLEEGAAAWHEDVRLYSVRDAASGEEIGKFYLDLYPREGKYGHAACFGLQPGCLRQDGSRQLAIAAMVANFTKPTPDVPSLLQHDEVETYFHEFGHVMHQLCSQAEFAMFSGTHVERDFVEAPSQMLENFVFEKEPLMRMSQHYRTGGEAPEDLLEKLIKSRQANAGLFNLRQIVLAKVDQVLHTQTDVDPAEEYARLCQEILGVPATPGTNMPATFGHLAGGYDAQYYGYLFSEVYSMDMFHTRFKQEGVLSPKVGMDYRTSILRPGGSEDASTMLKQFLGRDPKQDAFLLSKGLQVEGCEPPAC
# T5 sequence (P24155 whole entry W124F/L215F/W335F/W511F/W513F/W614F): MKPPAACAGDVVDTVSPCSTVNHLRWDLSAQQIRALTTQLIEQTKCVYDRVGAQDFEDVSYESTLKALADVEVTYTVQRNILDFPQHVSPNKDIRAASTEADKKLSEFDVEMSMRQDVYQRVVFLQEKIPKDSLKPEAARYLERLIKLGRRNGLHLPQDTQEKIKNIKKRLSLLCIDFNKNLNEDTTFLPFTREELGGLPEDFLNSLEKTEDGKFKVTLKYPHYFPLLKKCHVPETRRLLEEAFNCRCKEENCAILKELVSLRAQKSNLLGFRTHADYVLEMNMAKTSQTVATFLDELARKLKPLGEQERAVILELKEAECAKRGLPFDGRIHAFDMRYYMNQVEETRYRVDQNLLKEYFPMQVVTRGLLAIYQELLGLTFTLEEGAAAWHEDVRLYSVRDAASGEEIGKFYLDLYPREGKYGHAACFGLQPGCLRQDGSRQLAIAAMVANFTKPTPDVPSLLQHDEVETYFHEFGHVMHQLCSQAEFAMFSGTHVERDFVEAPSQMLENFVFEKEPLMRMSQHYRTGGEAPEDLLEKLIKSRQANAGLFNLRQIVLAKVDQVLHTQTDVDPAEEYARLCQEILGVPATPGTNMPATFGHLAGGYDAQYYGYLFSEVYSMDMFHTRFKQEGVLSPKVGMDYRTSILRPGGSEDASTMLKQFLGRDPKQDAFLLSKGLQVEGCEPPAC
# T3 sequence (P24155 whole entry W124F/W335F/W511F/W513F/W614F): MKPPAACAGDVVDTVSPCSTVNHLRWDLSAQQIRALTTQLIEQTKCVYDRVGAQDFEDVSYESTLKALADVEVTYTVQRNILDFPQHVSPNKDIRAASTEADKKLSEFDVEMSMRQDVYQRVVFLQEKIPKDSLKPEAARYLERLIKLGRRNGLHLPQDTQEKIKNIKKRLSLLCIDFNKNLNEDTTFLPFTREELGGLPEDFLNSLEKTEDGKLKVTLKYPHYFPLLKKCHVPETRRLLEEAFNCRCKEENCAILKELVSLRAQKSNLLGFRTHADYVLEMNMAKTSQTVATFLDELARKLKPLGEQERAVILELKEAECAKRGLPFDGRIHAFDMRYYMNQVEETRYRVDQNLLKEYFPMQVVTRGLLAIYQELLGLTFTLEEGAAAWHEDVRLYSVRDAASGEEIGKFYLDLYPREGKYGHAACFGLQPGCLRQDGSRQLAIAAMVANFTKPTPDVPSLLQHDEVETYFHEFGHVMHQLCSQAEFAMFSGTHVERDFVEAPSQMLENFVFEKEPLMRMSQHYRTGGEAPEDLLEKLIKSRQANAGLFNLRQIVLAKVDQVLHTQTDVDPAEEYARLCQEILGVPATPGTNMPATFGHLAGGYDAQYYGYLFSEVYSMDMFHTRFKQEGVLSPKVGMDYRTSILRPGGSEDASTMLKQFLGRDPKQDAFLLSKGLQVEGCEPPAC
# T6 sequence (P24155 whole entry W124F/Y224F/W335F/W511F/W513F/W614F): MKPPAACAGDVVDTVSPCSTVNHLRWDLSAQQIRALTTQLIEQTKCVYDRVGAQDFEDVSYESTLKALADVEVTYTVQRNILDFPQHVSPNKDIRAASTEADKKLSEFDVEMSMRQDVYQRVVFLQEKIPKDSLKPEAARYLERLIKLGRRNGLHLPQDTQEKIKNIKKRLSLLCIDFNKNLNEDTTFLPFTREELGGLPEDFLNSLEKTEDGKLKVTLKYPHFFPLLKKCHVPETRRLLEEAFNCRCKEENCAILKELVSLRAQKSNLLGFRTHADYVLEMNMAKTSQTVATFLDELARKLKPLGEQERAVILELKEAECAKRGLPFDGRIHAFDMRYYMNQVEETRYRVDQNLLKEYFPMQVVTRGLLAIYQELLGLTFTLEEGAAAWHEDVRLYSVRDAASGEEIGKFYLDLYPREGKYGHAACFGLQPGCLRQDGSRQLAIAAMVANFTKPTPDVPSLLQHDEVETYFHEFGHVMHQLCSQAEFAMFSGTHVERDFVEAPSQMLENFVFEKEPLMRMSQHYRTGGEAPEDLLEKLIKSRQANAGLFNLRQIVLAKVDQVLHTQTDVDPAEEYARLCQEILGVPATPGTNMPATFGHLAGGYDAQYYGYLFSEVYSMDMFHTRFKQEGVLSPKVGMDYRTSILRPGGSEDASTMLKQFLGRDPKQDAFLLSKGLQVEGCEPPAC
# T2 sequence (P24155 whole entry W124F/W335F/W511F/W513F/W614F): as the sequence (P24155 whole entry W124F/W335F/W511F/W513F/W614F) above
# T1 sequence (P24155 whole entry): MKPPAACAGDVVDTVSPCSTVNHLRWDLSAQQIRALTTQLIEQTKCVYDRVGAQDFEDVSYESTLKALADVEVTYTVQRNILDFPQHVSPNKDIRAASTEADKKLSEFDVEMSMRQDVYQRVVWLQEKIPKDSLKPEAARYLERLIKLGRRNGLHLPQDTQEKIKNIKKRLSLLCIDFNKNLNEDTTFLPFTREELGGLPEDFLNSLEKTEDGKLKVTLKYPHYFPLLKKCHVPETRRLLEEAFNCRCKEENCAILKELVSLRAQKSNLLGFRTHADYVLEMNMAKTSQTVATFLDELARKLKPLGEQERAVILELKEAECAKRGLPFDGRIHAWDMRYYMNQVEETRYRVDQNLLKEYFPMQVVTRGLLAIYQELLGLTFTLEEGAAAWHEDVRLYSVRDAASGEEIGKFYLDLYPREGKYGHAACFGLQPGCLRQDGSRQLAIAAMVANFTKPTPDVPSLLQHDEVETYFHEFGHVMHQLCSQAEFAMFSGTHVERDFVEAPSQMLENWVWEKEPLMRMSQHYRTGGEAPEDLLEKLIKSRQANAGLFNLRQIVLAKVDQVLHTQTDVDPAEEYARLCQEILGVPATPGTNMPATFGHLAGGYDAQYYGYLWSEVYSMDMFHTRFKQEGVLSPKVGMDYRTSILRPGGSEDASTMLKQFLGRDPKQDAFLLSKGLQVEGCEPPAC
compound,measurement,setting,value
"C[C@H](NC(CCc1ccccc1)C(=O)O)C(=O)NC(C)(C)C(=O)N[C@@H](Cc1ccc(O)cc1)C(=O)Nc1ccc(C(=O)O)cc1 (stereo partly drawn) [JA-2, N-[1-(R,S)-carboxy-3-phenylpropyl]Ala-Aib-Tyr-p-aminobenzoate]",Ki,WT TOP,32 ± 1 nM
same,Ki,TOP^-TrpW390,750 ± 40 nM
same,Ki,TOP^-TrpW390/F178pNF [1],1230 ± 80 nM
same,Ki,TOP^-TrpW390/L182pNF [2],740 ± 60 nM
same,Ki,TOP^-TrpW390/L215pNF [3],870 ± 50 nM
same,Ki,TOP^-TrpW390/Y224pNF [4],1160 ± 60 nM
same,"FRET Efficiency, +JA-2",TOP^-TrpW390/F178pNF [5]; [9],0.150 ± 0.009
same,"D-A Distance, +JA-2",TOP^-TrpW390/F178pNF [5]; [10],21 Å
same,"FRET Efficiency, +JA-2",TOP^-TrpW390/L182pNF [6]; [9],0.24 ± 0.02
same,"D-A Distance, +JA-2",TOP^-TrpW390/L182pNF [6]; [10],19 Å
same,"FRET Efficiency, +JA-2",TOP^-TrpW390/L215pNF [7]; [9],0.10 ± 0.005
same,"D-A Distance, +JA-2",TOP^-TrpW390/L215pNF [7]; [10],23 Å
same,"FRET Efficiency, +JA-2",TOP^-TrpW390/Y224pNF [8]; [9],0.30 ± 0.02
same,"D-A Distance, +JA-2",TOP^-TrpW390/Y224pNF [8]; [10],18 Å
